Tests used:
[1] = system: 46I/47V/50V (VX478) strain; experiment: Transient DNA transfection assay, strain 46I/47V/50V (VX478); assay type: cell-based, HIV-1; conditions: 1 nM
Excerpt: (§1) By way of PCR-supported mutagenesis and cloning, HIV-1 protease mutants are generated that are based on the infectious clone pNL4-3 (freely available via the "NIH AIDS reference and reagent program", the original reference is A. Adachi et al. J. Virol (1986) 59, 284-91--but it can, of course, be any other HIV clone, or even clinical material, provided that comparability is ensured). […] The cloned fragments are, for example, only 500 base pairs in length, all of the remainder being unchanged. By using mutations in always the same clone, direct comparability is ensured, which would rot be the case in a direct comparison of clinical samples or of different HIV clones.
(§2) That system is used as a transient DNA transfection system for tests:
(§3) Instead of the strains mentioned, there may be used any human T4-positive cells, such as the HeLa T4 cells, deposited under that name by Richard Axel and Paul Maddon in "NIH AIDS reference and reagent program" and obtainable via that source.

[2] = system: resistant variant (45I,76F strain)
Excerpt: as §1, §2, §3

## COC(=O)N[C@H](C(=O)N[C@@H](Cc1ccccc1)[C@@H](O)CN(Cc1ccc(-c2ccccn2)cc1)NC(=O)[C@@H](NC(=O)OC)C(C)(C)C)C(C)(C)C [Example 46, 1-[4-(Pyridin-2-yl)-phenyl]-4(S)-hydroxy-5(S)-2,5-bis[N-(N-methoxycarbonyl-(L)-tert-leucyl)amino]-6-phenyl-2-azahexane]
[1]
  activity against strain 46I/47V/50V (VX478) compared with saquinavir, ritonavir and indinavir: more potent (not quantified) than that of saquinavir, ritonavir and indinavir
[2]
  activity against a resistant variant (45I,76F strain) compared with saquinavir, indinavir, ritonavir: comparable with saquinavir and better than that of indinavir (Merck & Co., Inc., see below) or ritonavir

Source: US6300519A, “Antivirally active heterocyclic azahexane derivatives” (Novartis Finance Corporation, priority 1996, dated 2001)
